Source: US11684592B2, “Multiresistant-tumour sensitiser” (Instituto Nacional de Neurologia Y Neurocirugia Manuel …, priority 2017, dated 2023)

Legend:
C6 cells = assay: Determination of Reactive Oxygen Species (ROS); format: cell-based, rat; details: 1 hour
Protocol: Intracellular generation of ROS was evaluated in real time by fluorescence microscopy using the ENZ-51011 detection kit (Enzo® Life Sciences). 5×10^3 cells per well were grown in half-area 96 wells plates (Costar 3595®) and incubated for 24 hours. Then, were incubated for 1 hour, with curcumin (2, 15, 30 or 100 μM), or Cur-[G2]-OH (6, 45, 90 or 300 μM) alone or in the presence of the ROS inhibitor N-Acetyl Cysteine (NAC, 400 μM) according to the manufacturer's instructions. As controls, pyocyanin (200 μM) was used as an inducer and NAC […] as an inhibitor, or DMEM medium with or without DMSO as a negative control. At the end of treatment, the test solutions were withdrawn, and the ROS detection solution was added. The plates were observed under bright field and fluorescence microscopy with the GFP filter (λ=469-525 nm), in the Cytation 3® multimodal reader (BioTek®, USA), and the images were captured and analyzed with the Gen5 2.06 program (BioTek®, USA). The experiments were performed five times.

[1] = test system: Beclin-1, p62, Nrf2, eIF2a and p-eIF2α in C6 cells; assay: Analysis of autophagy markers and Nrf2 pathway by Western blot; format: cell-based, rat; details: curcumin 2, 15 and 30 μM or Cur-[G2]-OH 6, 45 and 90 μM, 24 h
Protocol: C6 cells were grown in 25 cm^2 culture bottles (Corning® N.Y.) to form a 70% confluent monolayer (approximately 4×10^6 cells) and treated with Cur-[G2]-OH (300 μM) for 24 hours. The cells were washed in cold PBS, and lysis buffer (50 mM Tris-HCl, 120 mM NaCl, 0.01% IGEPAL) was added with a protease inhibitor cocktail (Sigma® P8340) and centrifuged to recover the supernatant. Proteins were quantified by the Lowry method (Lowry et al. 1951).
[…] The membranes were blocked with skim milk and subsequently incubated with the respective primary antibody (Beclin1, ab62557; p62, ab91526; Nrf2, sc-30915; p-eIF2α, sc-12412; eIF2, sc-11386 or β-actin, sc-47778) under stirring overnight at 4° C. After incubation, the membranes were washed with a Tween 20 tris-base saline buffer (TBST) and incubated with the respective secondary antibody conjugated to horseradish peroxidase (SIGMA). The bands were visualized by chemiluminescence with the Western Blotting Luminol Reagent reagents (Santacruz Biotechnology®), and the ChemiDoc-It® TS2 Imaging System (UVP, LLC).

C6 cells from rat glioma [2] = assay: Determination of apoptotic death by dual staining with propidium iodide and Hoechst 33342; format: cell-based; details: curcumin 100 μM or Cur-[G2]-OH 300 μM, 24 or 48 hours
Protocol: C6 cells from rat glioma (American Tissue Culture Collection, Rockville, Md., U.S.A. ATCC® CCL-107™) cultured under standard conditions in DMEM medium supplemented with Bovine Fetal Serum and 15% horse serum were used for the experiments.
1×10^4 C6 cells/well were cultured with 100 μl of Dulbecco's Modified Eagle's Medium (DMEM) medium for 24 hours in 96-well plates. The cells were treated with curcumin (100 μM), or with Cur-[G2]-OH (300 μM), or with the respective vehicle as a control. After 24- or 48-hours post-treatment, the cells were fixed with a mixture of methanol/acetone (1:1) and stained with propidium iodide (0.5 μg/ml), washed and Hoechst 33342 dye was added (0.1 μg/ml) for staining the nuclei. Cells were observed on the Cytation 3® plate reader (BioTek® Instruments, Inc.) using the DAPI (λ=377-447 nm) and Texas Red (λ=586-647 nm) filters, and the images were captured and analyzed with the Gen5 2.06® program.

C6 cells from rat glioma [3] = assay: DNA fragmentation assay; format: cell-based; details: curcumin 100 μM or Cur-[G2]-OH 300 μM, 24 h
Protocol: To determine DNA fragmentation, C6 cells (1×10^6) were seeded in Petri dishes (100 mm) at a confluence of 70%. They were treated with curcumin (100 μM) or Cur-[G2]-OH (300 μM) and incubated for 24 and 48 hours. Controls were incubated with vehicle only (DMSO or PBS respectively).
The DNA was extracted using Trizol (Invitrogen® 15596-026), according to the supplier's specifications, and quantified on a spectrophotometer (Genesys 8®). 20 μg of DNA from each sample was deposited on a 1.5% agarose gel. Electrophoresis was performed at 100 V for 90 minutes. The gel was stained with the Hydragreen™ dye (ACTGene ACT-IDM604) and DNA detection was performed using the ethidium bromide filter and UV light on the Chemidoc-It TS2 imager photodocument (UVP, CA).

## COc1cc(/C=C/C(=O)CC(=O)/C=C/c2ccc(O)c(OC)c2)ccc1O [curcumin, reference compound]
C6 cells; curcumin 2, 15, 30 or 100 μM or Cur-[G2]-OH 6, 45, 90 or 300 μM, without NAC
  generation of ROS: less effective at producing ROS
C6 cells; with NAC 400 μM
  generation of ROS in the presence of N-acetyl Cysteine (NAC): slightly amplified with the use of NAC
[1]
  levels of total eIF2-α (immunoblot): increases both the levels of total eIF2-α
  phosphorylation of eIF2-α (p-eIF2-α, immunoblot): increases both the levels of total eIF2-α, and the levels of p-eIF2α
C6 cells from rat glioma [2]
  nuclear staining / apoptotic morphology (propidium iodide and Hoechst 33342): chromatin condensation (stars), nuclear fragmentation (thin arrows) and apoptotic bodies (arrowheads)
C6 cells from rat glioma [3]
  DNA fragmentation (agarose gel electrophoresis): DNA fragmentation was only evident in cells treated with curcumin
